Patent publication US20030125253A1, “Novel protein, process for producing the same and use therof” (priority 2002, published 2003)

Legend:
Type in all cases: cell-based, human
SSP2 mRNA in IMR-32 cell = assay: Differentiation-dependent induction of SSP2 mRNA expression in IMR-32 cells (TaqMan PCR); conditions: 10 μM BrDU, cultured for 14 days, RNA at 7 and 14 days, cells differentiated to neuron in morphology
Protocol: For conducting more detailed analysis of SSP2 expression, TaqMan PCR conditions were set. The primers used were Upper Primer (SEQ ID NO: 57) and Lower Primer (SEQ ID NO: 58), and the probe used for detection was shown by SEQ ID NO: 59. In TaqMan PCR, 250 nM of Upper Primer, 250 nM of Lower Primer, 75 nM of the probe and template DNA were mixed with TaqMan Universal Mixture, and SSP2 gene was quantified by real time PCR of 40 cycle of 15 seconds at 95° C. and 60 seconds at 60° C. IMR-32 cells were cultured overnight at […] cells/well (6 well plate), and cultured for 14 days under four different conditions of 1 mM dibutyl cycle AMP (db-cAMP), 10 μM Bromo deoxyuridine (BrDU), 1 mM db-cAMP/10 μM BrDU and no differentiation-inducing agent. RNA was extracted from cells at 7 days and 14 days, then, SSP2 mRNA was quantified by TaqMan PCR. Induction of expression of SSP2 mRNA was recognized in cells which were differentiated to neuron in terms of morphology by 10 μM BrDU (FIG. 8).

[1] = system: stable SSP1-overexpressing HepG2 cell; assay: ApoB lipoprotein secretion in stable SSP1-overexpressing HepG2 cells (sandwich EIA); conditions: SSP1 stable expression HepG2 cell strains vs parent HepG2, 24 hours, 5% LPDS + oleate (BSA complex)
Protocol: SSP1 gene was subcloned into pcDNA3.1(+)-myc vector (Invitrogen), and the thus obtained expression plasmid for eucaryotic cell having the C-terminal Myc-tag was transfected into HepG2 cells by a lipofection method, and these cells were cultured in the presence of 500 ug/ml G418 to obtain G418-resistant strains. From these strains, 4 stable cell strains highly expressing SSP1 mRNA were obtained using the quantification, of expression amount of SSP1 mRNA by TaqMan PCR. A gene encoding amino acid no. 33-273 of SSP1 protein was subcloned into pET 21(+) vector (Novagen), and using the SSP1 partial protein produced in Escherichia coli as an antigen, a polyclonal antibody was prepared according to an ordinary method. The amino acid sequence of the antigen protein is shown by SEQ ID NO: (antigen AP-1). Using this antibody (AP-1), the expression of SSP1 protein in cell-extract of the four stable SSP1-expressing cell strains was investigated by a Western blotting method. […] For quantification of ApoB lipoprotein, a sandwich EIA method using an anti-human apoB goat polyclonal antibody and an anti-human apoB mouse monoclonal antibody was carried out. In the quantification, human LDL was used as a standard substance, and the concentration of ApoB lipoprotein secreted in the supernatant was represented as an equivalent human LDL value. […]

SSP1 mRNA in HepG2 cell = assay: Change of SSP1 mRNA expression in treated HepG2 cells (TaqMan PCR); conditions: 24 hours in serum free D-MEM medium with the agent, 25-OH 5 μg/ml, βVLDL 100 μg-TC/ml, HPβCD 5 mM, 10% FBS
Protocol: For conducting more detailed analysis of SSP1 expression, TaqMan PCR conditions were set. The primers used were Upper Primer (SEQ ID NO: 54) and Lower Primer (SEQ ID NO: 55), and the probe used for detection was shown by SEQ ID NO: 56. In TaqMan PCR, 250 nM of Upper Primer, 250 nM of Lower Primer, 75 nM of the probe and template DNA were mixed with TaqMan Universal Mixture, and SSP1 gene was quantified by real time PCR of 40 cycle of 15 seconds at 95° C. and 60 seconds at 60° C.
After HepG2 cell was treated as shown in FIG. 7 for one day, RNA was extracted to perform a reverse transcription using oligo-dT as a primer. Then, change in the expression amount of SSP1 mRNA was analyzed using the quantification system of expression amount of SSP1 mRNA as shown in Example 6. Specifically, HepG2 cells were cultured on a 24-well plate, and incubated for 24 hours in a serum free D-MEM medium in the presence of 10% FBS (10% FBS), 5 μg/ml of 25-hydroxycholesterol (25-OH), 100 μg-TC/ml of rabbit βVLDL (βVLDL), 1 μM of Atrvastatin (ATOS), 5 mM hydroxypropyl-β-cyclodextiin (HPβCD), 10 μM progesterone (Progesterone) or 100 μM dibutyl-cyclic AMP (db-cAMP). The expression amount of SSP1 mRNA in RNA extracted from these cells was measured as a rate (%) to GAPDH mRNA measured as the internal standard.

Row | Compound | change in the expression amount of SSP1 mRNA (rate to GAPDH mRNA) (SSP1 mRNA in HepG2 cell) | also measured
1 | O=c1[nH]c(=O)n([C@H]2C[C@H](O)[C@@H](CO)O2)cc1Br [BrDU, Bromo deoxyuridine] | – | induction of expression of SSP2 mRNA (SSP2 mRNA in IMR-32 cell): Induction
2 | CCCCCCCC/C=C\CCCCCCCC(=O)O [oleic acid] | – | activity to promote apoB lipoprotein secretion by addition of oleic acid [1]: disappeared
3 | C[C@H](CCCC(C)(C)O)[C@H]1CC[C@H]2[C@@H]3CC=C4C[C@@H](O)CC[C@]4(C)[C@H]3CC[C@]12C [25OH, 25-hydroxycholesterol] | decrease | –
4 | hydroxypropyl-β-cyclodextiin [HPβCD] | increase | –
